Tests used:
Assay in all cases: biochemical
Parameters in all cases: KINOMEscan competition binding assay, kinase captured on immobilized ligand, per cent of DMSO control
Conditions in all cases: read-out: % Ctrl
TSSK1B = TSSK1B (Homo sapiens, UniProt Q9BXA7)
Description: (§1) Competition binding assays were performed by DiscoverX (Freemont, CA, USA). […] S-Score^35 = (number of non-mutant kinases with %Ctrl < 35)/(number of non-mutant kinases tested). […] Kds are calculated […] by measuring the amount of kinase captured on the solid support as a function of the test compound concentration (n = 2, mean ± range).

YSK4 = target: T1, YSK4 (Homo sapiens, UniProt Q56UN5)
T1 construct: gene MAP3K19
Description: as §1

YANK3 = target: T2, YANK3 (Homo sapiens, UniProt Q86UX6)
T2 construct: gene STK32C
Description: as §1

TNIK = TNIK (Homo sapiens, UniProt Q9UKE5)
Description: as §1

TRKB = target: T3, TRKB (Homo sapiens, UniProt Q16620)
T3 construct: gene NTRK2
Description: as §1

VEGFR2 = target: T4, VEGFR2 (Homo sapiens, UniProt P35968)
T4 construct: gene KDR
Description: as §1

WNK3 = WNK3 (Homo sapiens, UniProt Q9BYP7)
Description: as §1

ZAP70 = ZAP70 (Homo sapiens, UniProt P43403)
Description: as §1

WNK1 = WNK1 (Homo sapiens, UniProt Q9H4A3)
Description: as §1

[1] = target: T5, TYK2(JH2domain-pseudokinase) (Homo sapiens, UniProt P29597)
T5 construct: JH2domain-pseudokinase
Description: as §1

TRPM6 = TRPM6 (Homo sapiens, UniProt Q9BX84)
Description: as §1

ULK2 = ULK2 (Homo sapiens, UniProt Q8IYT8)
Description: as §1

TLK2 = TLK2 (Homo sapiens, UniProt Q86UE8)
Description: as §1

[2] = target: T6, TYK2(JH1domain-catalytic) (Homo sapiens, UniProt P29597)
T6 construct: JH1domain-catalytic
Description: as §1

TRKC = target: T7, TRKC (Homo sapiens, UniProt Q16288)
T7 construct: gene NTRK3
Description: as §1

YANK1 = target: T8, YANK1 (Homo sapiens, UniProt Q8WU08)
T8 construct: gene STK32A
Description: as §1

YES = target: T9, YES (Homo sapiens, UniProt P07947)
T9 construct: gene YES1
Description: as §1

TXK = TXK (Homo sapiens, UniProt P42681)
Description: as §1

YSK1 = target: T10, YSK1 (Homo sapiens, UniProt O00506)
T10 construct: gene STK25
Description: as §1

TLK1 = TLK1 (Homo sapiens, UniProt Q9UKI8)
Description: as §1

TRKA = target: T11, TRKA (Homo sapiens, UniProt P04629)
T11 construct: gene NTRK1
Description: as §1

ULK3 = ULK3 (Homo sapiens, UniProt Q6PHR2)
Description: as §1

ZAK = target: T12, ZAK (Homo sapiens, UniProt Q9NYL2)
T12 construct: gene MAP3K20
Description: as §1

TTK = TTK (Homo sapiens, UniProt P33981)
Description: as §1

ULK1 = ULK1 (Homo sapiens, UniProt O75385)
Description: as §1

TNNI3K = TNNI3K (Homo sapiens, UniProt Q59H18)
Description: as §1

YANK2 = target: T13, YANK2 (Homo sapiens, UniProt Q9NY57)
T13 construct: gene STK32B
Description: as §1

TNK2 = TNK2 (Homo sapiens, UniProt Q07912)
Description: as §1

TIE2 = target: T14, TIE2 (Homo sapiens, UniProt Q02763)
T14 construct: gene TEK
Description: as §1

VRK2 = VRK2 (Homo sapiens, UniProt Q86Y07)
Description: as §1

WEE1 = WEE1 (Homo sapiens, UniProt P30291)
Description: as §1

WEE2 = WEE2 (Homo sapiens, UniProt P0C1S8)
Description: as §1

TNK1 = TNK1 (Homo sapiens, UniProt Q13470)
Description: as §1

TYRO3 = TYRO3 (Homo sapiens, UniProt Q06418)
Description: as §1

T9 sequence (P07947 whole entry): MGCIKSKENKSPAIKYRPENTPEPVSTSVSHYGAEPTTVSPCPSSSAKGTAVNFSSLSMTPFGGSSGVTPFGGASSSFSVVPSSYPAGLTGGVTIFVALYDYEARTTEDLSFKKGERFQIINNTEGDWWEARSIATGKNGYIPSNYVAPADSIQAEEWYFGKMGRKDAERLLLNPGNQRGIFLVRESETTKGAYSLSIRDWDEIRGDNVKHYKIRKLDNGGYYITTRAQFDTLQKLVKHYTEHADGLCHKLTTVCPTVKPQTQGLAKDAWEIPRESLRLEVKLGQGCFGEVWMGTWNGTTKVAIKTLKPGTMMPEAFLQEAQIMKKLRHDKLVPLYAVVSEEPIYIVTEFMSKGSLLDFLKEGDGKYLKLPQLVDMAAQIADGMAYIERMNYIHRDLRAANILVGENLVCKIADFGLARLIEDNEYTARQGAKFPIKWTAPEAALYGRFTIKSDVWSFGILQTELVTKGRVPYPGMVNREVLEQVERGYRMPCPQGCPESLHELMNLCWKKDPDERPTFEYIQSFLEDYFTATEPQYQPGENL
T2 sequence (Q86UX6 whole entry): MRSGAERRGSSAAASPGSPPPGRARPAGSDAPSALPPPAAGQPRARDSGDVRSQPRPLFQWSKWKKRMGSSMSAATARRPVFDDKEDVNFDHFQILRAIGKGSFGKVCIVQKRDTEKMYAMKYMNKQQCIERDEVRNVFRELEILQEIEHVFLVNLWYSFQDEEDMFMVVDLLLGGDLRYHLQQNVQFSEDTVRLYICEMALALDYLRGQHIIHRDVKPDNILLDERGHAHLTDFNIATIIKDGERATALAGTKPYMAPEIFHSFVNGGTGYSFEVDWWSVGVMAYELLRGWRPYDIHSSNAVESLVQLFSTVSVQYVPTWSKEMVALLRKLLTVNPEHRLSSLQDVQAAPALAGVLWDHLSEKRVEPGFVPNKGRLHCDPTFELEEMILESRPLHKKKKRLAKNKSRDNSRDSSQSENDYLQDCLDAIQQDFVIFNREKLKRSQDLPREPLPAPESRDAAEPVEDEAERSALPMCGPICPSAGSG
TTK, sequence (P33981 whole entry): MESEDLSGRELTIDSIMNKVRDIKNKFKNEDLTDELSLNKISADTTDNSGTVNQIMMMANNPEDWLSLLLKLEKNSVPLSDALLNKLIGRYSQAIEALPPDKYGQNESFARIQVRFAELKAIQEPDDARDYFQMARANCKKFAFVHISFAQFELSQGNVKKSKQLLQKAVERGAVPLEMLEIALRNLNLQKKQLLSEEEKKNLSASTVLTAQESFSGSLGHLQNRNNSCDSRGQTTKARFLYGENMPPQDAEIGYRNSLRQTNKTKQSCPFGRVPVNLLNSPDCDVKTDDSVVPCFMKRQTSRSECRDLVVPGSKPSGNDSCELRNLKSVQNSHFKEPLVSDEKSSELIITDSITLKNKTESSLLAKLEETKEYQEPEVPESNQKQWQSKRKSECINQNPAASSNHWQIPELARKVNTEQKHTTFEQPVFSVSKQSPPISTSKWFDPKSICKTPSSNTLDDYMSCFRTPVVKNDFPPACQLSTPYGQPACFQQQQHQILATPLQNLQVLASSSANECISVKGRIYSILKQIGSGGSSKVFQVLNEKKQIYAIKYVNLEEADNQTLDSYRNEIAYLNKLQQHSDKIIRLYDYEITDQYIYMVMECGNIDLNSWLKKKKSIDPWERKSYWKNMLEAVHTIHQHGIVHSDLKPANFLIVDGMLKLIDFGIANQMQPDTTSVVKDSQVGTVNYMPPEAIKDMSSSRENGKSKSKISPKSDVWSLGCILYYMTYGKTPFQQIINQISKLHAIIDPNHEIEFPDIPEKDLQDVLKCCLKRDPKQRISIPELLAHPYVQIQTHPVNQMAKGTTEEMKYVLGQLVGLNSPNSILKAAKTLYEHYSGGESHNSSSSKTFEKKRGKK
TYRO3, sequence (Q06418 whole entry): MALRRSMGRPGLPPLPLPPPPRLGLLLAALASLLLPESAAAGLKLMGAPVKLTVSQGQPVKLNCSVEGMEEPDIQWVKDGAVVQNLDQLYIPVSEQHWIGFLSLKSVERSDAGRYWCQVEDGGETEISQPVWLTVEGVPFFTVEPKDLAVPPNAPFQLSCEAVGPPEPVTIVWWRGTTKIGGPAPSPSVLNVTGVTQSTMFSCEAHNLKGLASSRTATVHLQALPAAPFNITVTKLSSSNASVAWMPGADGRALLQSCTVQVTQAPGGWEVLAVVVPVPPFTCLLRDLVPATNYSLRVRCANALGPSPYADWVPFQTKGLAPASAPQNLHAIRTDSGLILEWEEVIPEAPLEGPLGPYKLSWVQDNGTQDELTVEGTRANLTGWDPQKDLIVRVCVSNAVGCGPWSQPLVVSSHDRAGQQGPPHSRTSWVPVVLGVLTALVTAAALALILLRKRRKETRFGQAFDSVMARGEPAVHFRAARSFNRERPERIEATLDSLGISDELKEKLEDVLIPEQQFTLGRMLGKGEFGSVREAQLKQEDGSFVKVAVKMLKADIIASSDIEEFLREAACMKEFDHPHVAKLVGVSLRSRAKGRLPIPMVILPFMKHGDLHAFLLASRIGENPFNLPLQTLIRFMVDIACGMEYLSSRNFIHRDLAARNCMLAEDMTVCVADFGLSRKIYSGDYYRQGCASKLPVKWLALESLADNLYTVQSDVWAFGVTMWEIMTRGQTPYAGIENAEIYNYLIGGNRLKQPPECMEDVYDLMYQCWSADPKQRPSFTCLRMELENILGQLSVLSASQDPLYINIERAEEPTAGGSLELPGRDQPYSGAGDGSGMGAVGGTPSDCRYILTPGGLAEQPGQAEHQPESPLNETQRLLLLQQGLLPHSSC
TLK1, sequence (Q9UKI8 whole entry): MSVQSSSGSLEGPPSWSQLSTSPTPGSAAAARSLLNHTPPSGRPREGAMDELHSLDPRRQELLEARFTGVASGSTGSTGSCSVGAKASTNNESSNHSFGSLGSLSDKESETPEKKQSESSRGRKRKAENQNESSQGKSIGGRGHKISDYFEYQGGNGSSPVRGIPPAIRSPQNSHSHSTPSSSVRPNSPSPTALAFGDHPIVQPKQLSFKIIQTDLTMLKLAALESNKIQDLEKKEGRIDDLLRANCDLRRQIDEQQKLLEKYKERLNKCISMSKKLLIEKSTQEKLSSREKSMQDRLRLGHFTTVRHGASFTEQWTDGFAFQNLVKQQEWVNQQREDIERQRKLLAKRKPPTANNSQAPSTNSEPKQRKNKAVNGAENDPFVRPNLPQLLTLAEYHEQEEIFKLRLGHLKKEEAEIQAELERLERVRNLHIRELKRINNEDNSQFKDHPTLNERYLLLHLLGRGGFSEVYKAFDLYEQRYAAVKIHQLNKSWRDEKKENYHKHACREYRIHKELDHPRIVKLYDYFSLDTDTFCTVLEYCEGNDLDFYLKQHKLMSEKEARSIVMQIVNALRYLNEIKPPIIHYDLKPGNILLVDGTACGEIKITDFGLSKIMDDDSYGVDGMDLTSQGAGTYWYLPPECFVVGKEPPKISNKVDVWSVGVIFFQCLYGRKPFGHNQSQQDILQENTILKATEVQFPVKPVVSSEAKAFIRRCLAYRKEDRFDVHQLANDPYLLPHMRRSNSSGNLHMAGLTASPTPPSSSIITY
ULK3, sequence (Q6PHR2 whole entry): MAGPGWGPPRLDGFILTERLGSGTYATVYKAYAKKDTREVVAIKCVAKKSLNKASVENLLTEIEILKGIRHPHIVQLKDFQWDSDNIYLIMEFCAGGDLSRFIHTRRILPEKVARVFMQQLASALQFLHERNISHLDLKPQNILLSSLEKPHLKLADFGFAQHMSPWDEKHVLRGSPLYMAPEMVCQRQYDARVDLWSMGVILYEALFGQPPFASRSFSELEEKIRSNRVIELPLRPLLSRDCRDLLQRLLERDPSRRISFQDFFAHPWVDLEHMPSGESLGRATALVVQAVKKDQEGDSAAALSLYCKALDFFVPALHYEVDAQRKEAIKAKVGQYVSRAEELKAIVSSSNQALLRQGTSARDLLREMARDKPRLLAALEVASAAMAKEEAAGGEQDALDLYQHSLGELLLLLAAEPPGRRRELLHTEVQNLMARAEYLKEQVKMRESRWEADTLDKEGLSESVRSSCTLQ
TNNI3K, sequence (Q59H18 whole entry): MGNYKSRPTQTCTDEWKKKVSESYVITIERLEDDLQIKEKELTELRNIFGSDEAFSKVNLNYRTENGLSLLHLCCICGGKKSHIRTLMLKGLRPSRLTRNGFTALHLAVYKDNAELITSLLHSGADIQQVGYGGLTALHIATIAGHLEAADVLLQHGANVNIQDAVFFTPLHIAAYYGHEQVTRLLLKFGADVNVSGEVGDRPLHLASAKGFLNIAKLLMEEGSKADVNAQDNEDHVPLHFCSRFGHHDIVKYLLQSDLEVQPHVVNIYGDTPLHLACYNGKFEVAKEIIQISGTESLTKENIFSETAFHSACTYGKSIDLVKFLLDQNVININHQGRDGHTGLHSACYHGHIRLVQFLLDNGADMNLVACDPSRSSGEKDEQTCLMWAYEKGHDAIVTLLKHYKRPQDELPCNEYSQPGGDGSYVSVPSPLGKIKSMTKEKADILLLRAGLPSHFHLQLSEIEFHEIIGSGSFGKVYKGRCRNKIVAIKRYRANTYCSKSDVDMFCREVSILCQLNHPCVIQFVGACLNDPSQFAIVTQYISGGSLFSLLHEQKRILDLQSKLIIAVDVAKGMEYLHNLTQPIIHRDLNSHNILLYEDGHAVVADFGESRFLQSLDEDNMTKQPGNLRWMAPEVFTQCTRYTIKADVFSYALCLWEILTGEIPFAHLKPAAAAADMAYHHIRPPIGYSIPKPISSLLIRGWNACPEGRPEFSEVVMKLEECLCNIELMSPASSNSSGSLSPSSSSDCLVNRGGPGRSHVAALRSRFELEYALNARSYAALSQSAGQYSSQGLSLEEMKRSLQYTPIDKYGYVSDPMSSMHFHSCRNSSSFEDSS

## COc1cc(O)c2c(c1)OC(O)(c1ccc(OCc3ccccc3)cc1)CC2=O (stereo not shown) [6E11, 2-(4-(benzyloxy)phenyl)-2,5-dihydroxy-7-methoxychroman-4-one]
TSSK1B
  percent of control binding at 10 µM: 83%
YSK4
  percent of control binding at 10 µM: 81%
YANK3
  percent of control binding at 10 µM: 72%
TNIK
  percent of control binding at 10 µM: 85%
TRKB
  percent of control binding at 10 µM: 100%
VEGFR2
  percent of control binding at 10 µM: 82%
WNK3
  percent of control binding at 10 µM: 50%
ZAP70
  percent of control binding at 10 µM: 100%
WNK1
  percent of control binding at 10 µM: 61%
[1]
  percent of control binding at 10 µM: 86%
TRPM6
  percent of control binding at 10 µM: 60%
ULK2
  percent of control binding at 10 µM: 98%
TLK2
  percent of control binding at 10 µM: 83%
[2]
  percent of control binding at 10 µM: 97%
TRKC
  percent of control binding at 10 µM: 100%
YANK1
  percent of control binding at 10 µM: 60%
YES
  percent of control binding at 10 µM: 87%
TXK
  percent of control binding at 10 µM: 100%
YSK1
  percent of control binding at 10 µM: 88%
TLK1
  percent of control binding at 10 µM: 100%
TRKA
  percent of control binding at 10 µM: 93%
ULK3
  percent of control binding at 10 µM: 71%
ZAK
  percent of control binding at 10 µM: 100%
TTK
  percent of control binding at 10 µM: 99%
ULK1
  percent of control binding at 10 µM: 79%
TNNI3K
  percent of control binding at 10 µM: 98%
YANK2
  percent of control binding at 10 µM: 84%
TNK2
  percent of control binding at 10 µM: 92%
TIE2
  percent of control binding at 10 µM: 100%
VRK2
  percent of control binding at 10 µM: 58%
WEE1
  percent of control binding at 10 µM: 82%
WEE2
  percent of control binding at 10 µM: 88%
TNK1
  percent of control binding at 10 µM: 88%
TYRO3
  percent of control binding at 10 µM: 93%

— article PMC5635128 (Scientific Reports, 2017)
